In patent publication US8846699B2, “Quinazoline derivatives as a multiplex inhibitor and method for the preparation thereof” (Hanmi Pharm. Co., Ltd., priority 2005, dated 2014):

Experiments:
[1] = system: Human Umbilical Vein Endothelial Cell (HUVEC); test: Inhibitory effect on growth of human umbilical vein endothelial cell (HUVEC), MTS; type: cell-based; conditions: 10 ng/ml VEGF, absorbance 490 nm
[2] = system: colon and rectal cancer cell line, SW-620; test: Inhibitory effect on growth of cancer cell line SW-620, SRB; type: cell-based; conditions: not having overexpressed EGFR and EGFR2
Method in brief: (§1)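 Cells were cultured in DMEM with 10% FBS. Compounds were applied at 10 μM with 10-fold serial dilution to 10^−4, DMSO <1%, for 72 h at 37 °C. Cells were then TCA-fixed and stained with 0.4% SRB, and absorbance was read at 570 nm after solubilisation in 10 mM Tris base.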

[3] = biological target: VEGFR2 (KDR) (Homo sapiens (Human), UniProt P35968); test: VEGFR2 (KDR) enzyme assay, fluorescence polarization; type: biochemical; conditions: 5 μM ATP, poly(Glu, Tyr) substrate
Method in brief: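 Autophosphorylation read by fluorescence polarization: VEGFR2 (Proquinase) at 200 ng/10 μl with 5 μM ATP and 10 ng/ml poly(Glu,Tyr) 4:1, in 20 mM HEPES pH 7.4, 5 mM MgCl2, 2 mM MnCl2, 50 μM Na3VO4. Reaction 1 h at room temperature, EDTA stop, then anti-phosphotyrosine antibody/tracer for 30 min in the dark.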

[4] = biological target: EGFR1 (HER-1) (Homo sapiens (Human), UniProt P00533); test: EGFR1 (HER-1) enzyme assay, fluorescence polarization; type: biochemical; conditions: 100 μM ATP, poly(Glu, Tyr) substrate
[5] = system: skin cancer cell line, A431; test: Inhibitory effect on growth of cancer cell line A431, SRB; type: cell-based; conditions: overexpressed EGFR1 (HER-1)
Method in brief: as §1

[6] = system: breast cancer cell line, SK-Br3; test: Inhibitory effect on growth of cancer cell line SK-Br3, SRB; type: cell-based; conditions: overexpressed EGFR2 (HER-2)
Method in brief: as §1

Chain of EGFR1 (HER-1) (P00533 25-1210): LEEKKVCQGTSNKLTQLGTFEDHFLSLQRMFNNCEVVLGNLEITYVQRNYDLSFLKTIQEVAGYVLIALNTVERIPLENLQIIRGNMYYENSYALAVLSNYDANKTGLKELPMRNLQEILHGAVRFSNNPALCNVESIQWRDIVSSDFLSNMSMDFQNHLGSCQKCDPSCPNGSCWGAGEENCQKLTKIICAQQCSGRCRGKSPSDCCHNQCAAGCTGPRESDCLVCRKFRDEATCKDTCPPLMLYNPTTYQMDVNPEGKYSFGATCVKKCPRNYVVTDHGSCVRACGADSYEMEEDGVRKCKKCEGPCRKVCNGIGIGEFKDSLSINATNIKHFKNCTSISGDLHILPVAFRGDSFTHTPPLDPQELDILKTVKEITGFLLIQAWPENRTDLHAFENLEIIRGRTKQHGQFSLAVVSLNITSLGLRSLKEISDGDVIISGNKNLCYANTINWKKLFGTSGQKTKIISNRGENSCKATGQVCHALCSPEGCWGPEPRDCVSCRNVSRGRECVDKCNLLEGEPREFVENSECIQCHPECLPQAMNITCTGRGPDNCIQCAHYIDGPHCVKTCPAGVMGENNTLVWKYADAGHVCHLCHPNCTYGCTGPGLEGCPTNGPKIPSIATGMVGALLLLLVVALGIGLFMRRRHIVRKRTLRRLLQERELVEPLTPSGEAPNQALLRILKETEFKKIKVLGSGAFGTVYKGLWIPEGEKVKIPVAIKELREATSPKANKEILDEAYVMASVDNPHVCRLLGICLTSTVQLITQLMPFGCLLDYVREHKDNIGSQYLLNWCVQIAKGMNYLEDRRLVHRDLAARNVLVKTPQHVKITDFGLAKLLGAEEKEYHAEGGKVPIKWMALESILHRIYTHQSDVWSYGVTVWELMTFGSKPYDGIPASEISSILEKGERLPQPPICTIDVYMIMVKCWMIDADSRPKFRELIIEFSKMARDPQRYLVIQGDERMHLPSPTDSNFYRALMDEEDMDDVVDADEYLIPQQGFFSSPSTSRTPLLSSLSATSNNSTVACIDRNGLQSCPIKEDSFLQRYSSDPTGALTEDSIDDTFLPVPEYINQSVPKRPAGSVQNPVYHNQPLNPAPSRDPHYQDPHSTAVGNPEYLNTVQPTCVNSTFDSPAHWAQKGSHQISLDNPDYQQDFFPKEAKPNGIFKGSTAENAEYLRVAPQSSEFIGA
Chain of VEGFR2 (KDR) (P35968 20-1356): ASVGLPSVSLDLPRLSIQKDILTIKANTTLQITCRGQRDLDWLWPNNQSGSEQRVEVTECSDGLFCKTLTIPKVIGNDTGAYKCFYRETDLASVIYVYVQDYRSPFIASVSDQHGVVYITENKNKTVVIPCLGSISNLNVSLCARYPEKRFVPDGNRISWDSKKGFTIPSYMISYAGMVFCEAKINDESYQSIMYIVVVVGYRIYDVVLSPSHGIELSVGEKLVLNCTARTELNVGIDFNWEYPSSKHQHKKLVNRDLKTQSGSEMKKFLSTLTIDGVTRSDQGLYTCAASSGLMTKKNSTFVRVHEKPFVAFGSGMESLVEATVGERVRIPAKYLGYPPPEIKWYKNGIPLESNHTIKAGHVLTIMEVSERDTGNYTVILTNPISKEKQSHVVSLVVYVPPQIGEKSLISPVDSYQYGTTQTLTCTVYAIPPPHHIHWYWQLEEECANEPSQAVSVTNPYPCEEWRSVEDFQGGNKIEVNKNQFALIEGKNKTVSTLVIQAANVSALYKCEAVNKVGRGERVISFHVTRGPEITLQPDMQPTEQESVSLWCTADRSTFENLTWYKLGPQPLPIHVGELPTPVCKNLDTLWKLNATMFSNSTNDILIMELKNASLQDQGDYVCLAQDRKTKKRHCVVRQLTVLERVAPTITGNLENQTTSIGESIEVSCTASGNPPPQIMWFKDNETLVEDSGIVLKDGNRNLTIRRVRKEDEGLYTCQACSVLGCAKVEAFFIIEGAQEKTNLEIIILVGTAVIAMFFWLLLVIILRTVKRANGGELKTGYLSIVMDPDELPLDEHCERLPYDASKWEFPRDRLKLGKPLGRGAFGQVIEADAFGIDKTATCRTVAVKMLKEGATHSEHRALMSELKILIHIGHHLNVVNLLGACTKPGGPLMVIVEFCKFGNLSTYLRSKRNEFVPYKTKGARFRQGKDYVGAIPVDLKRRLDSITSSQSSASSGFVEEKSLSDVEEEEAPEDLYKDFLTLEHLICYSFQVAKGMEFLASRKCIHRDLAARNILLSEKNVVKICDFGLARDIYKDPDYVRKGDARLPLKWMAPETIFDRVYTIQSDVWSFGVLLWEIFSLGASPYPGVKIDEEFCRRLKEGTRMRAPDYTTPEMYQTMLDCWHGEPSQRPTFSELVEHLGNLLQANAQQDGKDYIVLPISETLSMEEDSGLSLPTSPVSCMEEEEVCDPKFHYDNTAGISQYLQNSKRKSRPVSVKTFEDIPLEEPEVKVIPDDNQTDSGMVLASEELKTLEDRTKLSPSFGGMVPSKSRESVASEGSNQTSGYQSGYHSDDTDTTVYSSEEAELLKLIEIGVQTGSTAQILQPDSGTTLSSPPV

| IC50 ([2]; Homo sapiens, 72 h) [nM] | IC50 [3] [nM] | IC50 [4] [nM] | IC50 ([5]; Homo sapiens, A-431, 72 h) [nM] | IC50 ([6]; Homo sapiens, SK-BR-3, 72 h) [nM] | SMILES | IC50 ([1]; Homo sapiens, 96 h) [nM] | IC50 ([1]; 96 hours) [nM] | IC50 ([2]; 72 hours) [nM] | IC50 ([5]; 72 hours) [nM] | IC50 ([6]; 72 hours) [nM] |
| --- | --- | --- | --- | --- | --- | --- | --- | --- | --- | --- |
| 10000 | 250 | 5 | 49 | 80 | C=CC(=O)NCCOc1cc2ncnc(Nc3ccc(Br)cc3F)c2cc1NC(=O)C=C [Example 26, N-{2-[6-acryloylamino-4-(4-bromo-2-fluoro-phenylamino)-quinazolin-7-yloxy]-ethyl}-acrylamide] | 87 |  |  |  |  |
| 2950 | 486 | 32 | 41 | 103 | C=CC(=O)Nc1cc2c(Nc3ccc(Br)cc3F)ncnc2cc1OCCNC(=O)CN1CC=CC1 [Example 108, N-{4-(4-bromo-2-fluoro-phenylamino)-7-[2-(2-2,5-dihydro-pyrrol-1-yl-acetylamino)-ethoxy]-quinazolin-6-yl}-acrylamide] | 497 |  |  |  |  |
| 4530 | 513 | 96 | 127 | 581 | C=CC(=O)Nc1cc2c(Nc3ccc(Br)cc3F)ncnc2cc1OCCNC [Example 30, N-[4-(4-bromo-2-fluoro-phenylamino)-7-(2-methylamino-ethoxy)-quinazolin-6-yl]-acrylamide] | 964 |  |  |  |  |
| 2320 | 161 | 14 | 16 | 98 | C=CC(=O)Nc1cc2c(Nc3ccc(Br)cc3F)ncnc2cc1OCCNC(=O)COC [Example 44, N-{4-(4-bromo-2-fluoro-phenylamino)-7-[2-(2-methoxy-acetylamino)-ethoxy]-quinazolin-6-yl}-acrylamide] | 265 |  |  |  |  |
| 2320 | 698 | 698 | 739 | 2560 | C=CC(=O)Nc1cc2c(Nc3ccc(Br)cc3F)ncnc2cc1OCCNC(=O)N1CCNCC1 [Example 94, piperazine-1-carboxylic acid {2-[6-acryloylamino-4-(4-bromo-2-fluoro-phenylamino)-quinazolin-7-yloxy]-ethyl}-amide] | 694 |  |  |  |  |
| 8250 | 189 | 68 | 89 | 43 | C=CC(=O)Nc1cc2c(Nc3ccc(Br)c(Cl)c3F)ncnc2cc1OCCNC(=S)NCC [Example 170, N-{4-(4-bromo-3-chloro-2-fluoro-phenylamino)-7-[2-(3-ethyl-thioureido)-ethoxy]-quinazolin-6-yl}-acrylamide] | 287 |  |  |  |  |
| 6310 | 108 | 26 | 48 | 216 | C=CC(=O)Nc1cc2c(Nc3ccc(Br)cc3F)ncnc2cc1OCC1CCN(C(=O)CS(C)(=O)=O)CC1 [Example 3, N-{4-(4-bromo-2-fluoro-phenylamino)-7-[1-(2-methanesulfonyl-acetyl)-piperidin-4-ylmethoxy]-quinazolin-6-yl}-acrylamide] | 90 |  |  |  |  |
| 2890 | 782 | 12 | 14 | 178 | C=CC(=O)Nc1cc2c(Nc3cc(F)c(Br)cc3F)ncnc2cc1OCCNC(C)=O [Example 119, N-[7-(2-acetylamino-ethoxy)-4-(4-bromo-2,5-difluoro-phenylamino)-quinazolin-6-yl]-acrylamide] | 921 |  |  |  |  |
| 2320 | 419 | 15 | 17 | 64 | C=CC(=O)Nc1cc2c(Nc3cc(Cl)c(Br)cc3F)ncnc2cc1OCCNC(C)=O [Example 133, N-[7-(2-acetylamino-ethoxy)-4-(4-bromo-5-chloro-2-fluoro-phenylamino)-quinazolin-6-yl]-acrylamide] | 429 |  |  |  |  |
| 2960 | 758 | 419 | 437 | 253 | C=CC(=O)Nc1cc2c(Nc3ccc(Cl)cc3F)ncnc2cc1OCCNC(=O)CN(C)C [Example 116, N-{4-(4-chloro-2-fluoro-phenylamino)-7-[2-(2-dimethylamino-acetylamino)-ethoxy]-quinazolin-6-yl}-acrylamide] | 951 |  |  |  |  |
| 9100 | 128 | 26 | 35 | 67 | C=CC(=O)Nc1cc2c(Nc3ccc(Br)c(Cl)c3F)ncnc2cc1OCCNC(=O)NCCC [Example 169, N-{4-(4-bromo-3-chloro-2-fluoro-phenylamino)-7-[2-(3-propyl-ureido)-ethoxy]-quinazolin-6-yl}-acrylamide] | 233 |  |  |  |  |
| 10000 | 56 | 13 | 12 | 37 | C=CC(=O)Nc1cc2c(Nc3ccc(Br)c(Cl)c3F)ncnc2cc1OCCNC(C)=O [Example 141, N-[7-(2-acetylamino-ethoxy)-4-(4-bromo-3-chloro-2-fluoro-phenylamino)-quinazolin-6-yl]-acrylamide] | 66 |  |  |  |  |
| 9540 | 751 | 9 | 8 | 57 | C=CC(=O)Nc1cc2c(Nc3cc(Cl)c(Cl)cc3F)ncnc2cc1OCCNC(=O)CN(C)C [Example 140, N-{4-(4,5-dichloro-2-fluoro-phenylamino)-7-[2-(2-dimethylamino-acetylamino)-ethoxy]-quinazolin-6-yl}-acrylamide] | 756 |  |  |  |  |
| 2220 | 215 | 89 | 73 | 983 | C=CC(=O)Nc1cc2c(Nc3ccc(Br)cc3F)ncnc2cc1OCCNC(=O)CCO [Example 67, N-{4-(4-bromo-2-fluoro-phenylamino)-7-[2-(3-hydroxy-propionylamino)-ethoxy]-quinazolin-6-yl}-acrylamide] | 351 |  |  |  |  |
| 8070 | 96 | 2 | 15 | 137 | C=CC(=O)Nc1cc2c(Nc3ccc(Br)cc3F)ncnc2cc1OCCNC(C)=O [Example 18, N-[7-(2-acetylamino-ethoxy)-4-(4-bromo-2-fluoro-phenylamino)-quinazolin-6-yl]-acrylamide] | 52 |  |  |  |  |
| 2500 | 41 | 154 | 365 | 896 | C=CC(=O)Nc1cc2c(Nc3ccc(Br)cc3F)ncnc2cc1OCC(C)NC(C)=O (stereo not drawn) [Example 81, N-[7-(2-acetylamino-propoxy)-4-(4-bromo-2-fluoro-phenylamino)-quinazolin-6-yl]-acrylamide] | 205 |  |  |  |  |
| 9570 | 66 | 19 | 15 | 71 | C=CC(=O)Nc1cc2c(Nc3ccc(Br)cc3F)ncnc2cc1OCCNC(=O)C=CC [Example 50, but-2-enoic acid {2-[6-acryloylamino-4-(4-bromo-2-fluoro-phenylamino)-quinazolin-7-yloxy]-ethyl}-amide] | 101 |  |  |  |  |
| 10000 | 478 | 125 | 147 | 572 | C=CC(=O)Nc1cc2c(Nc3ccc(Br)cc3F)ncnc2cc1OCC1=NCCO1 [Example 109, N-[4-(4-bromo-2-fluoro-phenylamino)-7-(4,5-dihydro-oxazol-2-ylmethoxy)-quinazolin-6-yl]-acrylamide] | 486 |  |  |  |  |
| 7520 | 635 | 39 | 35 | 198 | C=CC(=O)Nc1cc2c(Nc3ccc(Br)cc3F)ncnc2cc1OCCNC(=O)CSC [Example 46, N-{4-(4-bromo-2-fluoro-phenylamino)-7-[2-(2-methylsulfanyl-acetylamino)-ethoxy]-quinazolin-6-yl}-acrylamide] | 656 |  |  |  |  |

| SMILES | IC50 ([2]; Homo sapiens, 72 h) [nM] | IC50 [3] [nM] | IC50 [4] [nM] | IC50 ([5]; Homo sapiens, A-431, 72 h) [nM] | IC50 ([6]; Homo sapiens, SK-BR-3, 72 h) [nM] | IC50 ([1]; Homo sapiens, 96 h) [nM] | IC50 ([1]; 96 hours) [nM] | IC50 ([2]; 72 hours) [nM] | IC50 ([5]; 72 hours) [nM] | IC50 ([6]; 72 hours) [nM] |
| --- | --- | --- | --- | --- | --- | --- | --- | --- | --- | --- |
| C=CC(=O)Nc1cc2c(Nc3ccc(Br)cc3F)ncnc2cc1OCC(C)NC(=O)CN(C)C (stereo not drawn) [Example 153] |  | 433 | 172 |  |  |  | 521 | 9570 | 160 | 207 |
| C=CC(=O)Nc1cc2c(Nc3ccc(Br)cc3F)ncnc2cc1OCC(CC)NC(C)=O (stereo not drawn) [Example 86, N-[7-(2-acetylamino-butoxy)-4-(4-bromo-2-fluoro-phenylamino)-quinazolin-6-yl]-acrylamide] | 722 | 98 | 69 | 71 | 208 | 118 |  |  |  |  |
| C=CC(=O)Nc1cc2c(Nc3ccc(Br)c(Cl)c3F)ncnc2cc1OC[C@@H](C)NC(=O)CN(C)C [Example 159] |  | 419 | 286 |  |  |  | 423 | 6650 | 254 | 162 |
